Patent publication US20250230138A1, “COMPOUNDS HAVING A T-STRUCTURE FORMED BY AT LEAST FOUR CYCLES FOR USE IN THE TREATMENT OF CANCER AND OTHER INDICATIONS” (TheRas, Inc., priority 2022, published 2025)
Read-outs that look alike come from different tables or passages of the source.

Key:
pAKT in BT474 cells = test: Cell-based pAKT HTRF assay in BT474 cells; settings: BT474 cells, 4 hr incubation, read-out: pAKT inhibition IC50 in BT474 cells
Method: On Day 1, cells were seeded into 96-well plates at 2.5×10^4 cells/well in complete growth media (DMEM, 10% FBS). On Day 2, cells were treated with compounds at 0.25% DMSO. The source plate was created with compounds diluted in media at 5-fold the final assay concentration. The compounds are run in a 9-point concentration curve starting at 3 μM, with a 3-fold dilution between concentrations. 20 μL was transferred onto the cell plates (final volume in wells was 100 μL). Plates were harvested after 4 hr incubation by aspirating media and adding kit-supplied 1× supplemented lysis buffer to all wells (75 μL per well). Plates were then placed on a plate shaker and incubated at 850 rpm for an additional 30 min. The antibody mixture solution was prepared by diluting aliquoted d2 and Eu Cryptate antibodies 1:20 in kit supplied detection buffer, then mixed the diluted antibodies solutions (1:1 v:v). 4 μL of this solution was then added to a 384-well detection plate (Perkin Elmer; 6008230). Samples were homogenized by pipetting up and down and then transferred (16 μL of cell lysates) from the 96-well cell culture plate to two wells of the HTRF 384-well detection plate containing the antibody solution. Plates were centrifuged (524 g for 1 min) and allowed to incubate between 4 and 24 h at room temperature. The maximum signal is reached after 4 h incubation time and remains stable over a period of 24 hours. Therefore, readings can be made between 4 and 24 h of incubation. Plates were centrifuged again (524 g for 1 m), and analyzed on the EnVision plate reader using the following settings: Excitation 320 nm, Bandwidth […]; Emission 615 nm, Bandwidth […], Gain 10000, Flashes 100, Lag 60 μs.

[1] = molecular target: Cys242 in human PIK3CA (157-299) (Homo sapiens (Human), UniProt P42336); test: Covalent modification assay using MALDI-TOF MS; format: biochemical; settings: 4 h reaction time point
Method: Matrix-Assisted Laser Desorption Ionization-Time of Flight Mass Spectrometry (MALDI-TOF MS) analysis of covalent modification of Cys242 in human PIK3CA (157-299) was performed.
Reaction: 3.33 μM or 1 μM of PIK3CA (157-299) protein (produced in-house by Protein Expression Laboratory, FNLCR/Leidos Biomed) in 20 mM HEPES buffer containing 150 mM NaCl, 2 mM MgCl2, pH 7.3 was prepared freshly before assay. Twelve-μL aliquots of protein were dispensed onto low volume 384-well plate, then 470 nL DMSO and 30 nL of tested compounds from 10 mM DMSO stocks were added to appropriate wells using ECHO 555 acoustic liquid handler (Labcyte Inc.). For each reaction/assay, three blanks were prepared by mixing 12 μL of protein solution with 500 nL DMSO. The wells content was carefully mixed by aspiration, and then the plate was sealed by an adhesive cover, centrifuged at 931 g for 1 minute, and kept in the dark at room temperature until 15 min, 30 min, 2 h, or 4 h collections.
Targetpretreatment: Before each assay MALDI target (Bruker MPT 384 ground steel BC) was pre-treated by pipetting on each spot 0.75 μL of saturated sinapinic acid in acetonitrile (ACN).
Sample preparation: At collection time point, 2 μL of reaction mixtures were pipetted out into […] MALDI matrix solution (saturated solution of sinapinic acid in 1:1 ACN:water solution containing 0.15% trifluoroacetic acid (TFA)) deposited on 384 well polypropylene plate. The resulting solution was mixed by aspiration, centrifuged at 931 g for 1 minute, then 1.5 μL aliquots were dispensed on pre-treated MALDI target using Beckman Coulter Biomek FX^P 96/384-Span-8 Laboratory Automation Workstation. Finally, the MALDI target was dried under a mild vacuum to produce spots with a fine crystalline structure.
Measurements: MALDI-TOF measurements were performed on Bruker Daltonics rapifleX Tissuetyper TOF-TOF mass spectrometer using linear mode and mass ranging from 16.0 to 19.6 kDa. Detector gain was set to 0.64×(459 V), sample rate to 5 GS/s, real-time smoothing to medium (175 MHz), laser smart beam pattern was set to “Custom” single smartbeam beam scan with a scan range of 40 μm on both X and Y axis, and the laser frequency was 10000 Hz. Spectra were automatically collected using the custom AutoXecute method. Laser power was auto adjusted using fuzzy control. The peak selection range was set to be between 16.0 and 18.5 kDa. Peak evaluation uses a half-width parameter set to be smaller than 40 Da for processed spectrograms (centroid peak detection; smoothed by SavitzkyGolay algorithm using 7 m/z width and 2 cycles; baseline was subtracted using a median algorithm with flatness 1 and median level 0). Fuzzy control used Proteins/Oligonucleotides protocol with minimum half-width 1/10 times above threshold. Up to 40000 satisfactory shots were collected in 10000 short steps. Dynamic termination was implemented to finish data collection when the peak signal/noise ratio was reaching a value of 1000.
Spectra processing: Spectra were smoothed by SavitzkyGolay algorithm using 7 m/z width and three cycles. Centroid peak detection algorithm was used with signal to noise threshold set to 6, relative intensity threshold 3%, peak width 10 m/z, and median baseline subtraction using flatness of 1 and the median level of 0.1. Peak intensity and area under the peak were evaluated and recorded for all peaks between 16.0 and 19.5 kDa.
Calculation of percent modification: Percent modification was calculated as a ratio of peak height for protein modified by compound to the sum of the peak height of remaining protein plus peak height for protein modified by a compound. If multiple modifications were observed each was calculated as a ratio of peak height for given modification versus the sum of peak heights for all observed protein species.

[2] = 3.33 μM protein target, 1:7.5 protein to compound ratio (compounds 1-852)
[3] = 1 μM protein target, 1:5 protein to compound ratio (compounds 853-1279)

Sequence of Cys242 in human PIK3CA (157-299) (P42336 157-299): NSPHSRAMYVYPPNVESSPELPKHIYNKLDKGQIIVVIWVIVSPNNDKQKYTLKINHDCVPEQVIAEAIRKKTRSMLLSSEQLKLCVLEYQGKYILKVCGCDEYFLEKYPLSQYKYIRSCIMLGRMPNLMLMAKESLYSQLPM

| Compound | IC50 (pAKT in BT474 cells; Compounds 10-999) | IC50 (pAKT in BT474 cells; Compounds 1000-1279) | % of modification [1, 2] | % of modification [1, 3] | other results |
| --- | --- | --- | --- | --- | --- |
| C=CC(=O)N1CCc2ccc(-c3nc(-c4ccc5c(c4)CCN(C)C5)c4ccsc4c3-c3ccc(F)cc3OCCOC)cc2C1 [Compound 83] | < 0.1 µM |  | A (percent of modification of PIK3CA protein ≥75%) |  |  |
| C=CC(=O)N1Cc2cc(-c3nc(-c4ccc5c(c4)CCN(C)C5)c4ccsc4c3-c3c(F)cc(F)cc3OC(C)C)nn2C(C)C1 (stereo not drawn) [Compound 556] | < 0.1 µM |  | A (percent of modification of PIK3CA protein ≥75%) |  |  |
| C=CC(=O)N1CCc2nc(-c3nc(-c4ccc(N5CCNCC5)nc4)c4ccsc4c3-c3ccc(F)cc3OCCOC)sc2C1 [Compound 174] | < 0.1 µM |  | A (percent of modification of PIK3CA protein ≥75%) |  |  |
| C=CC(=O)N1Cc2cc(-c3nc(-c4ccc5cnn(C)c5c4)c4ccsc4c3-c3c(F)cc(F)cc3OC[C@@H](C)O)nn2C[C@H]1C [Compound 755] | < 0.1 µM |  | A (percent of modification of PIK3CA protein ≥75%) |  |  |
| C=CC(=O)N1Cc2cc(-c3nc(C45CC(CN(C)C)(C4)C5)c4ccsc4c3-c3c(F)cc(F)cc3OCCOC)nn2C[C@H]1C [Compound 1168, 1-((6R)-2-(7-(2,4-difluoro-6-(2-methoxyethoxy)phenyl)-4-(3-((dimethylamino)methyl)bicyclo[1.1.1]pentan-1-yl)thieno[3,2-c]pyridin-6-yl)-6-methyl-6,7-dihydropyrazolo[1,5-a]pyrazin-5(4H)-yl)prop-2-en-1-one] |  |  |  | B (50%<percent of modification <75%) | IC50 (pAKT in BT474 cells; Homo sapiens, BT-474, Compounds 1000-1279): 0.1 to 1 µM |
| CC#CC(=O)N1CCc2nc(-c3nc(-c4ccc5c(c4)CCNC5)c4ccsc4c3-c3ccc(F)cc3OCCOC)sc2C1 [Compound 127] | 1 to 3 µM |  | D (percent of modification <25%) |  |  |
| C=CC(=O)N1Cc2cc(-c3nc(-c4cnnc(C)c4)c4ccsc4c3-c3c(F)cc(F)cc3OCCOC)nn2[C@@H](C)C1 [Compound 740] | < 0.1 µM |  | A (percent of modification of PIK3CA protein ≥75%) |  |  |
| C=CC(=O)N1Cc2cc(-c3nc(-c4cnc5c(c4)CNC(=O)C5)c4ccsc4c3-c3c(F)cc(F)cc3OCCOC)nn2[C@@H](C)C1 [Compound 515] | < 0.1 µM |  | A (percent of modification of PIK3CA protein ≥75%) |  |  |
| C=CC(=O)N1CCc2ncc(-c3nc(-c4cnn(C)c4)c(C(F)(F)F)cc3-c3ccc(F)cc3OC(C)C)cc2C1 [Compound 360, 1-[3-[3-(4-fluoro-2-isopropoxy-phenyl)-6-(1-methylpyrazol-4-yl)-5-(trifluoromethyl)-2-pyridyl]-7,8-dihydro-5H-1,6-naphthyridin-6-yl]prop-2-en-1-one] |  |  | B (50%<percent of modification <75%) |  | IC50 (pAKT in BT474 cells; Homo sapiens, BT-474, Compounds 10-999): > 3 µM |
| C=CC(=O)N1CCc2nc(-c3nc(-c4ccc5c(c4)CCN(C)C5)c4ccsc4c3-c3c(F)cc(F)cc3OC(C)C)sc2C1 (single isomer, unassigned) [Compound 447] | 0.1 to 1 µM |  | D (percent of modification <25%) |  |  |

Continued, in another order:

| IC50 (pAKT in BT474 cells; Compounds 10-999) | IC50 (pAKT in BT474 cells; Compounds 1000-1279) | Compound | % of modification [1, 2] | % of modification [1, 3] | other results |
| --- | --- | --- | --- | --- | --- |
| < 0.1 µM |  | C=CC(=O)N1CCn2nc(-c3nc(-c4ccc5cnncc5c4)c4ccsc4c3-c3c(F)cc(F)cc3OC[C@@H](C)O)cc2[C@H]1C [Compound 895] |  | A (percent of modification of PIK3CA protein ≥75%) |  |
|  | > 1 µM | C=CC(=O)N1CCc2nc(-c3nc(-c4ccc5c(cnn5C)c4)c4ccsc4c3-c3c(F)cc(F)cc3OCCO)sc2C1 [Compound 1032] |  | D (percent of modification <25%) |  |
|  | < 0.1 µM | C=CC(=O)N1CCn2nc(-c3nc(-c4ccc(N5CCN(C)CC5)cc4)c4ccsc4c3-c3c(F)cc(F)cc3OCCO)cc2C1C (stereo not drawn) [Compound 1089] |  | A (percent of modification of PIK3CA protein ≥75%) |  |
|  | 0.1 to 1 µM | COCCOc1cc(F)cc(F)c1-c1c(-c2cc3n(n2)CCN(C#N)C3C)nc(-c2ccc3c(cnn3C)c2)c2ccsc12 (stereo not drawn) [Compound 1233] |  | D (percent of modification <25%) |  |
|  | < 0.1 µM | C=CC(=O)N1CCn2nc(-c3nc(-c4cnn(C5CN(C)C5)c4)c4ccsc4c3-c3c(F)cc(F)cc3OCCOC)cc2C1C (stereo not drawn) [Compound 1029] |  | A (percent of modification of PIK3CA protein ≥75%) |  |
| < 0.1 µM |  | C=CC(=O)N1CCn2nc(-c3nc(-c4ccc5cnn(C)c5c4)c4ccsc4c3-c3c(F)cc(F)cc3OCC(C)O)cc2C1C (stereo not drawn) [Compound 769] | A (percent of modification of PIK3CA protein ≥75%) |  |  |
|  | < 0.1 µM | C=CC(=O)N1CCn2nc(-c3nc(-c4ccc(C(=O)NCCN(C)C)cc4)c4ccsc4c3-c3c(F)cc(F)cc3OCCOC)cc2C1C (stereo not drawn) [Compound 1059] |  | A (percent of modification of PIK3CA protein ≥75%) |  |
|  | < 0.1 µM | C=CC(=O)N1CCn2nc(-c3nc(-c4cnnc(C5CC5)c4)c4ccsc4c3-c3c(F)cc(F)cc3OCCOC)cc2C1C (stereo not drawn) [Compound 1030] |  | A (percent of modification of PIK3CA protein ≥75%) |  |
| < 0.1 µM |  | C=CC(=O)N1CCn2nc(-c3nc(-c4ccc5ncn(C)c5c4)c4ccsc4c3-c3c(F)cc(F)cc3OCCO)cc2C1C (stereo not drawn) [Compound 773] | A (percent of modification of PIK3CA protein ≥75%) |  |  |
|  | 0.1 to 1 µM | C=CC(=O)N1CCc2nc(-c3nc(-c4ccc5c(c4)CN(C)CC5(F)F)c4ccsc4c3-c3c(F)cc(F)cc3OCCOC)sc2C1 [Compound 1276] |  | A (percent of modification of PIK3CA protein ≥75%) |  |
|  | < 0.1 µM | C=CC(=O)N1CCn2nc(-c3nc(-c4ccc(C(=O)N5CCN(C)CC5)cc4)c4ccsc4c3-c3c(F)cc(F)cc3OCCOC)cc2C1C (stereo not drawn) [Compound 1096] |  | A (percent of modification of PIK3CA protein ≥75%) |  |
